Measured values reported in ChEMBL document CHEMBL1201862, “PubChem BioAssay data set” (2004).
Activity calls are given as the source filed them.

Experiments:
[1] = target: Scavenger receptor class B member 1 (Mus musculus, UniProt Q61009); assay: inhibitors of SR-BI mediated HDL lipid uptake, dose response, ldlA[mSR-BI] cells, fluorescence, cherry pick (AID 493194); assay type: functional, cell-based;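 further: cellular uptake of fluorescent DiI-labeled HDL measured as cell fluorescence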
[2] = target: Voltage-gated N-type calcium channel alpha-1B subunit/Amyloid beta A4 precursor protein-binding family A member 1 (Homo sapiens, UniProt Q00975+Q02410); assay: disruptors of Mint-PDZ/N-type channel peptide interaction – biochemical, HTRF, set 2, SAR follow-up (AID 434980); assay type: functional
[3] = inhibitors of firefly luciferase expression or activity, dose response, H4 neuroglioma cells, luminescence (AID 1990); assay type: functional, cell-based
[4] = luciferase reporter signal reduction – luminescence, H4-C neuroglioblastoma cells, dose response (AID 2458); assay type: functional, cell-based;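 further: H4 neuroglioblastoma cells stably carrying a luciferase reporter gene fusion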
cells = assay type: functional, cell-based
[5] = Luminescence Cell-Based Dose Response HTS to Identify Inhibitors of 5'UTR Stem-Loop Driven Prion Protein mRNA Translation in H4 Neuroglioblastoma Cells. [Related pubchem assays: 1827 (Project Summary), 1813 (Primary HTS)]; assay type: functional
[6] = target: T1, Heat shock factor protein 1 (Mus musculus, UniProt P38532); assay: inhibition of MG132-induced HSE-luciferase signal, confirmation, cell-based, NIH3T3, luminescence, dose retest (AID 2382); assay type: functional;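 further: NIH3T3 fibroblasts with HSF1-driven luciferase reporter stressed by proteasome inhibitor MG132; luminescence from HSF1-driven luciferase expression after 8 hours of MG132 stress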
T1 sequence (P38532 whole entry): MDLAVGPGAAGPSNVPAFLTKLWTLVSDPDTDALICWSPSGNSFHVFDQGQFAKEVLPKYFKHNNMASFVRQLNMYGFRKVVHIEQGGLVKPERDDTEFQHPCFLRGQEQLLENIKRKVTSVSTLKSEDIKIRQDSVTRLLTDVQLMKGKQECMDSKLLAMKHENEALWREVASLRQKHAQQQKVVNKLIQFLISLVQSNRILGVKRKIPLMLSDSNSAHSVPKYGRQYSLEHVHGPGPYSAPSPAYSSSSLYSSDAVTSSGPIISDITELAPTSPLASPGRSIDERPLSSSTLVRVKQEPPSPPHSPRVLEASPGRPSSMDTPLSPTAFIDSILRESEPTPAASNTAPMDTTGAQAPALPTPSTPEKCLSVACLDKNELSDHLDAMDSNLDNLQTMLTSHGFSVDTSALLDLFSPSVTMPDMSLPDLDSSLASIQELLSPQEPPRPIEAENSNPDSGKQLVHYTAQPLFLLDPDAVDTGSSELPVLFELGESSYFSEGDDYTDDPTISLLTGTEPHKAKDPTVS

[7] = inhibitors of SNCA 5'UTR-driven reporter translation, confirmation, H4 neuroglioma cells, luminescence (AID 1988); assay type: functional, cell-based
[8] = Luminescence-based counterscreen assay for KLF5 inhibitors: dose response cell-based high throughput screening assay to identify cytotoxic compounds using the IEC-6 intestinal epithelial cell line. [Related pubchem assays: 1700 (Primary screen.), 1834 (Confirmation screen.), 1858 (Summary AID.), 1905 (Counterscreen.)]; assay type: functional
[9] = inhibitors of SNCA 5'UTR-driven translation, confirmation, luminescence, H4 neuroglioblastoma cells, dose confirmation (AID 2454); assay type: functional, cell-based;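 further: H4 neuroglioblastoma cells carrying an alpha-synuclein 5'UTR luciferase reporter; potency for inhibition of the luciferase signal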
Tumor necrosis factor = Tumor necrosis factor (Homo sapiens, UniProt P01375); assay: TNFa-triggered NF-kB activation inhibitors, SAR follow-up, cell-based, revised (AID 2337); assay type: functional
[10] = target: T2, Nucleotide-binding oligomerization domain-containing protein 1 (Homo sapiens, UniProt Q9Y239); assay: NOD1 signaling inhibitors, SAR follow-up, revised (AID 2333); assay type: functional
T2 sequence (Q9Y239 whole entry): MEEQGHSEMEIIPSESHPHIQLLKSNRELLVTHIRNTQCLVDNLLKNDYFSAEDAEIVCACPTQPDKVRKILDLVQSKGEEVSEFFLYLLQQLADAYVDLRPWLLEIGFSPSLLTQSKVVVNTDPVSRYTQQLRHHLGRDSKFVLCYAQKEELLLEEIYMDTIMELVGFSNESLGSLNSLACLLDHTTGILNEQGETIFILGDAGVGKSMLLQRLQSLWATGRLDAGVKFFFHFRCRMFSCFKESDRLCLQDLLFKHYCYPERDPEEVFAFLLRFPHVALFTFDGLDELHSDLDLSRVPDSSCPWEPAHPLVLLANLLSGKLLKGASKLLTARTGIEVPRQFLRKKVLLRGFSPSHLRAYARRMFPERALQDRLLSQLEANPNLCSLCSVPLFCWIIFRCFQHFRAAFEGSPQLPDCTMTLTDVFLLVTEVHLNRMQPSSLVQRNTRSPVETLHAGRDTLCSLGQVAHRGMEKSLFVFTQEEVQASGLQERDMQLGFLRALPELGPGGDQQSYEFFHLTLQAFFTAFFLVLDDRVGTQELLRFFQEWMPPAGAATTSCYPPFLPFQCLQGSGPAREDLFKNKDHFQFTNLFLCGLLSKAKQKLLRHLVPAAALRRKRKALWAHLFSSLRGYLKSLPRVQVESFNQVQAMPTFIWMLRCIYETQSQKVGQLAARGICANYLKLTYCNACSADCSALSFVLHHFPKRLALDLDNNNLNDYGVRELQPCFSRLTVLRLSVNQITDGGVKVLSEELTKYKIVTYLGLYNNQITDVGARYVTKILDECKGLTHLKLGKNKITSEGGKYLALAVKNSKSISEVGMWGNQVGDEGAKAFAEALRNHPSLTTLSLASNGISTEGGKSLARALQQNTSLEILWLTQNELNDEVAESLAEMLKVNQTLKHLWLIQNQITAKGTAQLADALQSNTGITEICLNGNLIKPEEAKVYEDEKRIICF

[11] = target: Luciferin 4-monooxygenase (Photinus pyralis, UniProt P08659); assay: firefly luciferase enzyme inhibitors, dose response, biochemical, dry powder samples, plate reader (AID 588451)
H4 [12] = assay: inhibitors of control reporter signal in H4 cells – cell-based, plate reader, dry powder samples, counter-screen for prion reporter project, dose response (AID 540255); assay type: functional; details: Homo sapiens
H4 [13] = assay: Amyloid Precursor 5' UTR neuroblastoma cell reporter line Measured in Cell-Based System Using Plate Reader - 2078-04_Inhibitor_Dose_DryPowder_Activity. [Related pubchem assays (depositor defined):AID488894]; assay type: functional; details: Homo sapiens
H4 [14] = assay: Inhibitors of Prion Protein 5' UTR mRNA Measured in Cell-Based System Using Plate Reader - 2078-01_Inhibitor_Dose_DryPowder_Activity. [Related pubchem assays (depositor defined):AID488894]; assay type: functional; details: Homo sapiens
[15] = Shn3 3'UTR reporter inhibitors, dose response, cell-based, Clone20 osteoblasts, firefly luciferase, cherry-picked (AID 624132); assay type: functional;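 further: firefly luciferase luminescence from reporter carrying the Shn3 3'UTR in osteoblasts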
[16] = reduction of Shn3 3'UTR firefly luciferase signal, dose response, Schnurri-3 inhibitor project, cell-based, Clone20 osteoblasts, cherry-pick, set 2 (AID 720490); assay type: functional;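 further: actives lower the luminescence signal as inhibitors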
HEK293 = assay: cells; details: Homo sapiens
[17] = target: Nucleotide-binding oligomerization domain-containing protein 2 (Homo sapiens, UniProt Q9HC29); assay: PubChem AID 2334; assay type: functional
[18] = target: Dual specificity protein phosphatase 3 (Homo sapiens, UniProt P51452); assay: VHR1 inhibitor Ki determination, SAR follow-up, biochemical, colorimetric (AID 2004)

Chain of Tumor necrosis factor (P01375 whole entry, the tested form may be a part): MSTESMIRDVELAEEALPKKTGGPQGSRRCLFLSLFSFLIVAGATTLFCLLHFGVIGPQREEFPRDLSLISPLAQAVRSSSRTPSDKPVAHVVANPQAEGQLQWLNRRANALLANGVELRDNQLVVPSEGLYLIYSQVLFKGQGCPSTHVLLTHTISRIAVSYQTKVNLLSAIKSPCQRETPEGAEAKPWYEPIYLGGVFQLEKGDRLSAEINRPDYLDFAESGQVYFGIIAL
Chain of Scavenger receptor class B member 1 (Q61009 whole entry): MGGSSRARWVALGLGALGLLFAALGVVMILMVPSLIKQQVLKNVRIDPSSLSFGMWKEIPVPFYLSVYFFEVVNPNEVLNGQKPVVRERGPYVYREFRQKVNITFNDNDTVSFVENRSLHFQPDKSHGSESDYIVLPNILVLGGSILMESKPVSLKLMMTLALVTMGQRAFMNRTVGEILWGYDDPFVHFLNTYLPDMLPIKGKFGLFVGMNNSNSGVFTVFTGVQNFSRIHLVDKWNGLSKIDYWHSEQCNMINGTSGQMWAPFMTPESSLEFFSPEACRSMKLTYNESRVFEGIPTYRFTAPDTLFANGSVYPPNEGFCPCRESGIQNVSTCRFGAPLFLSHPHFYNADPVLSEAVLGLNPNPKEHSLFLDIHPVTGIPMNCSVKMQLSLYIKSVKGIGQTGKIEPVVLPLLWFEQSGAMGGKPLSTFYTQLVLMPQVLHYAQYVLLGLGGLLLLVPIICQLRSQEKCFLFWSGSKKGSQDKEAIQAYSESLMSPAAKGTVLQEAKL
Chain of Voltage-gated N-type calcium channel alpha-1B subunit/Amyloid beta A4 precursor protein-binding family A member 1 (Q00975 whole entry): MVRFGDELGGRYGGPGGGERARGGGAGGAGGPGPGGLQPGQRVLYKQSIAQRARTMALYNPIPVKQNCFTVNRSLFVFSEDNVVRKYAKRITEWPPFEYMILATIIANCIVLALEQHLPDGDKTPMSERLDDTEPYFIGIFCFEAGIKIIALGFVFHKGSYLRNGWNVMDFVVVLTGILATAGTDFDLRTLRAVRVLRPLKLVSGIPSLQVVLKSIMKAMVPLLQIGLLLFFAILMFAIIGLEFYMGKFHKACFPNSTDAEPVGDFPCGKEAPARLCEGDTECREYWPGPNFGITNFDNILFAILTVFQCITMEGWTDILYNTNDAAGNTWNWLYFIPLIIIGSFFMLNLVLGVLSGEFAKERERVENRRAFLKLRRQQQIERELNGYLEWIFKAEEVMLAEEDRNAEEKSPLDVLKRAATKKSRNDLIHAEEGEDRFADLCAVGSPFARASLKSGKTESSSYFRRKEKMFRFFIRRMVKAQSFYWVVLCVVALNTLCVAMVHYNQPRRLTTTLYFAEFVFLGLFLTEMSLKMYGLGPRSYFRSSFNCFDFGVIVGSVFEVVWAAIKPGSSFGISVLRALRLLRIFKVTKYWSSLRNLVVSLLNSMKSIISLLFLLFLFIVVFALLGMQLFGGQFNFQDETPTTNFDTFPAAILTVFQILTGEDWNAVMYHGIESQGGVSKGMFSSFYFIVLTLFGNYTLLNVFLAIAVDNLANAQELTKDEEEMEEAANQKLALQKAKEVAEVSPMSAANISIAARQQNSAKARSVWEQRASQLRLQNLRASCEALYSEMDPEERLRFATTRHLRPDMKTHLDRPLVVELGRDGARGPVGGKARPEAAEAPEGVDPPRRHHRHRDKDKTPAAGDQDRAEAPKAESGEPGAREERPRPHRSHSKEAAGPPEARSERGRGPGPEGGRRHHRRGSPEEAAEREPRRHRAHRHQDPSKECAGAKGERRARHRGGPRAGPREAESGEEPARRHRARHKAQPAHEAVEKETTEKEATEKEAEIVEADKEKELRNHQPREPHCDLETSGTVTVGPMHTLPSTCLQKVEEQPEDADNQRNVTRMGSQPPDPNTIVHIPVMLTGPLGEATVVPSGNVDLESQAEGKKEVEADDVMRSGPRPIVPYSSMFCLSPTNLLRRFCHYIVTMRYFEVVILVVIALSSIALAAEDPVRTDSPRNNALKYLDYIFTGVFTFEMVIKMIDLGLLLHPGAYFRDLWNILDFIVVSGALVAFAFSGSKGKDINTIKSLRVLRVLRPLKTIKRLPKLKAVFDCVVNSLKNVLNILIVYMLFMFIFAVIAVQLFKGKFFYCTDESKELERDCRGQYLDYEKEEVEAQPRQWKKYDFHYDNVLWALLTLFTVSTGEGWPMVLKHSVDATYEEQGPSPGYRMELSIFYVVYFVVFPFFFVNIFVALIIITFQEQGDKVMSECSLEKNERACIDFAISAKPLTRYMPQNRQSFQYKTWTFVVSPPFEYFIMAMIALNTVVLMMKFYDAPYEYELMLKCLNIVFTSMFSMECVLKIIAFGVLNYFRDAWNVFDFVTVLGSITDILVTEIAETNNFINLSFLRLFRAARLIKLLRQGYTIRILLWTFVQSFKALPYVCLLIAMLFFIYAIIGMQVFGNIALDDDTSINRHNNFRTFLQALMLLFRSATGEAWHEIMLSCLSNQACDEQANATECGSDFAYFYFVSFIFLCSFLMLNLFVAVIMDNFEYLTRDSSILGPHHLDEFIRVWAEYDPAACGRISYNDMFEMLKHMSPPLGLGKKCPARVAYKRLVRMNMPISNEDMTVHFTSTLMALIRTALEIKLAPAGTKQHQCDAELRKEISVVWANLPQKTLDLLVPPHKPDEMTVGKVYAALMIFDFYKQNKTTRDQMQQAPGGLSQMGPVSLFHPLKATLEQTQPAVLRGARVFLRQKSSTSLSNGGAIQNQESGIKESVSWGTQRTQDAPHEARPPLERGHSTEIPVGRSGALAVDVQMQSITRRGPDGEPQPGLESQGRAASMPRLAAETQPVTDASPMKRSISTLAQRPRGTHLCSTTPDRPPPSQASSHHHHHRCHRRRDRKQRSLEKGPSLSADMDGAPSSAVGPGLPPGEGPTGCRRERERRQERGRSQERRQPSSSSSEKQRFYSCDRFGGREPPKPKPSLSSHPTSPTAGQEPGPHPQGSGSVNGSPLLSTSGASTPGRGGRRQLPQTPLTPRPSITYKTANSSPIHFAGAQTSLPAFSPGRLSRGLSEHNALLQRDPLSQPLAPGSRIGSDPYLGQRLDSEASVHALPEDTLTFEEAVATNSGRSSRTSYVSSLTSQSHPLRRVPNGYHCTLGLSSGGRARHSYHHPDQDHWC
Chain of Voltage-gated N-type calcium channel alpha-1B subunit/Amyloid beta A4 precursor protein-binding family A member 1 (Q02410 whole entry): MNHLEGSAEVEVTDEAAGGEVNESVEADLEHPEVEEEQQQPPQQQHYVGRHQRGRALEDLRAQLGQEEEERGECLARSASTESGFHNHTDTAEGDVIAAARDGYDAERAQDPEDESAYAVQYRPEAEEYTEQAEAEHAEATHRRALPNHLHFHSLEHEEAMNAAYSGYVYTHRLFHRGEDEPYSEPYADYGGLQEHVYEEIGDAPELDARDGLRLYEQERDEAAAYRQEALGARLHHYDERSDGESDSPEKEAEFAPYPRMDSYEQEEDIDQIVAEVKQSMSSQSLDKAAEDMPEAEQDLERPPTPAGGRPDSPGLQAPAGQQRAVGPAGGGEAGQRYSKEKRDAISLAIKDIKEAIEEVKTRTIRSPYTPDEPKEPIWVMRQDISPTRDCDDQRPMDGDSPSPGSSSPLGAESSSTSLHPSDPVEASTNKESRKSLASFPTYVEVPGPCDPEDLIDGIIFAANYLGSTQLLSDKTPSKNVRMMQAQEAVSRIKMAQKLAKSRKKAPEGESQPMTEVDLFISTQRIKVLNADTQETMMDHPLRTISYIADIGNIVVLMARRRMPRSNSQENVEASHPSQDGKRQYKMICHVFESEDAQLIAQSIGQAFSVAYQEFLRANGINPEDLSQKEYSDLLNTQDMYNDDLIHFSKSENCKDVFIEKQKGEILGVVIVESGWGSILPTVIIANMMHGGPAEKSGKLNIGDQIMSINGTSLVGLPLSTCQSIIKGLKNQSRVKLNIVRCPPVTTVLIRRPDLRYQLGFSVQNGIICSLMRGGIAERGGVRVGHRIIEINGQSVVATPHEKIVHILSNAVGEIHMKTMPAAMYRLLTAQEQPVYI
Chain of Nucleotide-binding oligomerization domain-containing protein 2 (Q9HC29 whole entry, the tested form may be a part): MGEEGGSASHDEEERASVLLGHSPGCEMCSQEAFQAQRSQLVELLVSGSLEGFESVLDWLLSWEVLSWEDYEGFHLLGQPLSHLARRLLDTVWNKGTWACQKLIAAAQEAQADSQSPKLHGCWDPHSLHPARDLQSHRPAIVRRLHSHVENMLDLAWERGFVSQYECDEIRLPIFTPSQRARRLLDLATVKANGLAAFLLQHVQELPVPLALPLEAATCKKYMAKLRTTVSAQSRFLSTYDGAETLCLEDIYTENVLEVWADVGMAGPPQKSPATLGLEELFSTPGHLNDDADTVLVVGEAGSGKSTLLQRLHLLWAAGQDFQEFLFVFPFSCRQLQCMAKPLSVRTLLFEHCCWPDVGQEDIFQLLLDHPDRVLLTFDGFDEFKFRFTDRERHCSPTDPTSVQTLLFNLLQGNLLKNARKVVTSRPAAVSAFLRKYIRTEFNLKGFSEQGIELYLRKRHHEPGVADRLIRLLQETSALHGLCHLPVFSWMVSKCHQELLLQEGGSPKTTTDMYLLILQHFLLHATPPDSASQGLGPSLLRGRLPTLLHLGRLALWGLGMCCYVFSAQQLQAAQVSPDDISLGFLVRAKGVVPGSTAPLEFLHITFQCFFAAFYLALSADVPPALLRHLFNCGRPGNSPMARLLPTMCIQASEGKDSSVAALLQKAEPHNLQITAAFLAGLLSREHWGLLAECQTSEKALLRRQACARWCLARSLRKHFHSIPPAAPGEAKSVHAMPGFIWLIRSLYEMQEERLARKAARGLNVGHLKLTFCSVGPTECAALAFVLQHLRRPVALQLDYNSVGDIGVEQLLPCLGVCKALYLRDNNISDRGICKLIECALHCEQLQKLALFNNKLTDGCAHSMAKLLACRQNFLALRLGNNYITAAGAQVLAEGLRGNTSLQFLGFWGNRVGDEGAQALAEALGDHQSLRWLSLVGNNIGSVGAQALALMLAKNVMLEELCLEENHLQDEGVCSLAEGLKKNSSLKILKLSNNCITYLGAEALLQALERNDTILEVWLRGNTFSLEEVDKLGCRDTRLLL

## Cc1cc(C(=O)C(C)OC(=O)C2=NNC(=O)CC2)c(C)n1-c1ccc(OC(F)F)cc1 (centres undefined)
[1]
  AC50: 3290 nM (active)

## CN1CCCC1CCNC(=O)c1cc(-c2ccco2)nc2ccccc12 (centres undefined)
[2]
  IC50: 24500 nM (active)

## Cc1cc(C(=O)COC(=O)c2ccccc2O)c(C)n1Cc1cccs1
[3]
  EC50: < 100 nM (active)
[4]
  EC50: 102 nM (active)
cells
  EC50: 146 nM (active)
[5]
  EC50: < 100 nM (active)
[6]
  EC50: < 160 nM (active)
[7]
  EC50: < 100 nM (active)
[8]
  IC50: > 39800 nM (not active)
[9]
  EC50: 159 nM (active)
Tumor necrosis factor
  IC50: < 39.1 nM (active)
[10]
  IC50: 285 nM (active)
[11]
  AC50: 12200 nM (active)
H4 [12]
  AC50: 66 nM (active)
H4 [13]
  AC50: 3.32 nM (active)
H4 [14]
  AC50: 13 nM (active)
[15]
  AC50: 8990 nM (active)
[16]
  AC50: < 135 nM (active)
HEK293
  IC50: > 20000 nM (inactive)

## O=C(Nc1sc2c(c1C(=O)O)CCCC2)C(=O)N1CCOCC1
Tumor necrosis factor
  IC50: > 20000 nM (inactive)
[10]
  IC50: > 20000 nM (inactive)
[17]
  IC50: > 20000 nM (inactive)
HEK293
  IC50: > 20000 nM (inactive)

## O=C1NC(=S)/C(=C\c2ccc(-c3ccc([N+](=O)[O-])cc3)o2)S1
[18]
  Ki: 1860 nM (active)
